Results taken from patent US10144715B2, “Piperazine derivatives as liver X receptor modulators” (priority 2014, dated 2018).
pEC50, pIC50, pKi: −log10 of the molar value. Where two headings read alike, the source gives them in different places.

What was measured:
LXR α LBD protein [1] = target: T1, LXR α LBD protein (Homo sapiens (Human), UniProt Q13133); assay: LXR α radioligand binding assay (SPA, competition with [3H]TO901317); conditions: read-out: LXRα Binding Ki
[2] = target: T2, Gal4 DNA binding domain fused to the LBD of LXRα in HEK293 cells (Homo sapiens (Human), UniProt Q13133); assay: LXR luciferase transcriptional reporter gene assay, antagonist mode (200 nM T0901317), LXRα; format: cell-based; conditions: for pIC50: read-out: Cell LXRα IC50
T2 sequence (Q13133 209-447): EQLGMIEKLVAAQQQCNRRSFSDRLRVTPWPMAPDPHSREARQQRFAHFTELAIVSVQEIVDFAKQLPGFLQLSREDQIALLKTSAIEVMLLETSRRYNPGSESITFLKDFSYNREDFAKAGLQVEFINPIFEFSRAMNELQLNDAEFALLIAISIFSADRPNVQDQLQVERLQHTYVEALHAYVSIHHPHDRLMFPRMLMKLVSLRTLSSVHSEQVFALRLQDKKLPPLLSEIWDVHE

[3] = target: T2, Gal4 DNA binding domain fused to the LBD of LXRα in HEK293 cells; assay: LXR luciferase transcriptional reporter gene assay, agonist mode, LXRα; format: cell-based; conditions: for pEC50: read-out: Cell LXRα EC50
LXR α LBD protein [4] = target: T1, LXR α LBD protein; assay: Human LXRα coactivator recruitment FRET assay, agonist mode; format: biochemical
Method in brief: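 LXRα- or LXRβ-LBD at 10 nM (2×) mixed with compound in DMSO, then fluorescein-SRC2-3 peptide 200 nM and Tb-anti-GST antibody 20 nM (4×) added; 2 h at rt. Time-resolved FRET read, 100 µs delay, 200 µs window; EC50 from four-parameter fit of percent control.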

LXR β LBD protein [5] = target: T3, LXR β LBD protein (Homo sapiens (Human), UniProt P55055); assay: biochemical; format: binding; conditions: read-out: LXRβ Binding Ki
Target sequence in this assay (P55055 222-460 limits assumed): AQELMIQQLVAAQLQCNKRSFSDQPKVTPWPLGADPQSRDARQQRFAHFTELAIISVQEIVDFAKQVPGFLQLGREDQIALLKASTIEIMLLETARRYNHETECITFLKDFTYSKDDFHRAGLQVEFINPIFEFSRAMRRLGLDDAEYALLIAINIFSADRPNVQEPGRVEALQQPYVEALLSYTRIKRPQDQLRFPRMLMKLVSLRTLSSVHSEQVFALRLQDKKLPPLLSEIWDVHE

[6] = target: Gal4 DNA binding domain fused to the LBD of LXRβ in HEK293 cells (Homo sapiens (Human), UniProt P55055); assay: cell-based
Sequence of Gal4 DNA binding domain fused to the LBD of LXRβ in HEK293 cells (P55055 222-460 limits assumed): as above

LXR β LBD protein [7] = target: T3, LXR β LBD protein; assay: biochemical; format: biochemical; conditions: for pEC50: read-out: FRET LXRβ EC50
Description: Two μL of the DMSO solutions were transferred to the plate and 38 μL of 10 nM LXRα-LBD or LXRβ-LBD (2×) were added immediately to the wells. The plate was shaken for 5 min at rt on an orbital micro shaker (DPC MicroMix® 5), after which 40 μL of 200 nM fluorescein-SRC2-3 peptide and 20 nM Terbium-anti-GST-antibody (Cat# PV3550, Life Technologies, Grand Island, N.Y.) solution (4×) were added to all. The plate was sealed and shaken for 2 min at rt, and incubated at rt for 2 h without agitation. […] The delay and window times were set at 100 and 200 microseconds, respectively. […] The percent control vs. compound concentration data were fit into a four-parameter model, and EC50 values were calculated from the fit as the concentrations corresponding to the inflection points on the concentration-response curves.
Target sequence in this assay (P55055 222-460): as the sequence (P55055 222-460 limits assumed) above

[8] = antagonist mode, 200 nM T0901317, HEK293 reporter gene assay
[9] = Biological Test Example 2, agonist mode
[10] = Biological Test Example 2, agonist mode, read-out: Cell LXRβ EC50
[11] = Biological Test Example 3, agonist mode

T1 sequence (Q13133 209-447): as the sequence (Q13133 209-447) above

| SMILES | pKi (LXR α LBD protein [1]) | Cell LXRα efficacy [3] | pEC50 [3] | pIC50 [2, 8] | pEC50 ([3]; agonist mode) | pEC50 (LXR α LBD protein [4]; agonist mode) | FRET LXRα efficacy (LXR α LBD protein [4]; agonist mode) | other results |
| --- | --- | --- | --- | --- | --- | --- | --- | --- |
| CC(C)[C@@H]1CN(c2ccc(F)c(S(C)(=O)=O)c2)CCN1c1ncc(Cc2ccc(C(=O)O)cc2)c(C(F)(F)F)n1 [Cpd No 32-1, (R)-4-((2-(4-(4-fluoro-3-(methylsulfonyl)phenyl)-2-isopropylpiperazin-1-yl)-4-(trifluoromethyl)pyrimidin-5-yl)methyl)benzoic acid] | 6.71 | 4667 (6) % | 5.33 |  |  |  |  | pIC50 [2]: 6.26 |
| CC(C)[C@@H]1CN(c2cccc(S(C)(=O)=O)c2)CCN1C(=O)OCC(C)(C)C [5-6, neopentyl (R)-2-isopropyl-4-(3-(methylsulfonyl)phenyl)piperazine-1-carboxylate] |  | 1424 (48) % |  | 5.02 | 5.85 | 6.63 | 52% |  |
| CS(=O)(=O)c1cccc(N2CCN(C[C@H]3CCC[C@H](C(F)(F)F)C3)[C@@H](c3ccc(F)cc3)C2)c1 [48-40, (S)-2-(4-fluorophenyl)-4-(3-(methylsulfonyl)phenyl)-1-(((1S,3S)-3-(trifluoromethyl)cyclohexyl)methyl)piperazine] | 5.61 |  |  | < 5.00 | < 4.70 |  |  |  |
| Cc1nc(N2CCN(c3ccc(F)c(S(C)(=O)=O)c3)C[C@H]2C(C)C)ncc1F [7-23, (R)-5-fluoro-2-(4-(4-fluoro-3-(methylsulfonyl)phenyl)-2-isopropylpiperazin-1-yl)-4-methylpyrimidine] |  | 1531 (52) % |  | < 5.00 | 5.82 | 5.95 | 73% |  |
| CS(=O)(=O)c1cccc(N2CCN(C[C@H]3CC[C@@]4(CC3)CC4(F)F)[C@@H](c3ccccc3)C2)c1 (single isomer, unassigned) [48-69] | 6.95 | 425 (69) % | 6.37 |  |  |  |  | pIC50 [2]: < 5.00; pKi (LXR β LBD protein [5]; Biological Test Example 1): 7.85; Cell LXRβ efficacy [6, 9]: 43%; pEC50 [6, 10]: 6.82 |
| CC(C)C[C@@H]1CN(c2cccc(S(C)(=O)=O)c2)CCN1C(=O)OC(C)(C)C [1-3, tert-butyl (R)-2-isobutyl-4-(3-(methylsulfonyl)phenyl)piperazine-1-carboxylate] |  | 955 (34) % |  | 5.54 | 6.02 | 5.77 | 43% |  |
| CC(C)[C@@H]1CN(c2cccc(S(C)(=O)=O)c2)CCN1c1ccc(C(F)(F)F)cn1 [Cpd No 7-35, (R)-2-isopropyl-4-(3-(methylsulfonyl)phenyl)-1-(5-(trifluoromethyl)pyridin-2-yl)piperazine] |  | 138 (97) % |  | < 5.00 | 6.86 | 7.89 | 79% |  |
| CC(C)[C@@H]1CN(c2cccc(S(C)(=O)=O)c2)CCN1c1ncccn1 [7-2, (R)-2-(2-isopropyl-4-(3-(methylsulfonyl)phenyl)piperazin-1-yl)pyrimidine] |  |  |  | 5.26 | < 4.70 | 5.99 | 23% |  |
| CS(=O)(=O)c1cccc(N2CCN(CC3CCN(CC(F)(F)F)CC3)[C@@H](c3ccccc3)C2)c1 (single isomer, unassigned) [48-52] |  | 736 (30) % |  | 5.32 |  |  |  | Cell LXRα efficacy [2]: 4773 (89) %; pEC50 [3, 9]: 6.13; pEC50 (LXR α LBD protein [4]; [11]): 5.97; FRET LXRα efficacy (LXR α LBD protein [4]; [11]): 32% |
| CS(=O)(=O)c1cccc(N2CCN(CC3CCC(O)(C(F)(F)F)CC3)[C@@H](c3ccccc3)C2)c1 (stereo partly drawn) [Cpd No 48-1, (S)-4-((4-(3-(methylsulfonyl)phenyl)-2-phenylpiperazin-1-yl)methyl)-1-(trifluoromethyl)cyclohexan-1-ol] |  | 760 (31) % | 6.12 |  |  | 5.82 | 19% | Cell LXRα efficacy [2]: 3946 (105) %; pIC50 [2]: 5.40 |
| CS(=O)(=O)c1cccc(N2CCN(C[C@@H]3CCC[C@H](C(F)(F)F)C3)[C@@H](c3ccc(F)cc3)C2)c1 (single isomer, unassigned) [48-41] | 6.71 | 1459 (7) % |  | 6.38 | 5.84 |  |  | Cell LXRα efficacy [2]: 421 (83) % |
| COCCN(C)Cc1cnc(N2CCN(c3ccc(F)c(S(C)(=O)=O)c3)C[C@H]2C(C)C)nc1C(F)(F)F [15-10, (R)-N-((2-(4-(4-fluoro-3-(methylsulfonyl)phenyl)-2-isopropylpiperazin-1-yl)-4-(trifluoromethyl)pyrimidin-5-yl)methyl)-2-methoxy-N-methylethan-1-amine] | 6.02 | 5353 (16) % |  | 5.79 | 5.27 |  |  |  |
| CC(C)[C@@H]1CN(c2ccc(C#N)c(S(C)(=O)=O)c2)CCN1c1nccc(C(F)(F)F)n1 [7-17, (R)-4-(3-isopropyl-4-(4-(trifluoromethyl)pyrimidin-2-yl)piperazin-1-yl)-2-(methylsulfonyl)benzonitrile] |  | 1115 (69) % |  | 5.22 | 5.95 |  |  |  |
| CS(=O)(=O)c1cccc(N2CCN(Cc3ccc(OC(F)(F)F)cc3)[C@@H](c3ccccc3)C2)c1 (single isomer, unassigned) [46-23] | 5.98 | 4367 (45) % | 5.36 |  |  | 5.15 | 47% | FRET LXRβ efficacy (LXR β LBD protein [7]): 710 (57) %; pEC50 (LXR β LBD protein [7]): 6.15; pKi (LXR β LBD protein [5]): 6.95; Cell LXRβ efficacy [6]: 1432 (29) %; pEC50 [6]: 5.84 |
| CS(=O)(=O)c1cccc(N2CCN(C[C@H]3CCN(CC(F)(F)F)C3)[C@@H](c3ccccc3)C2)c1 (single isomer, unassigned) [48-63] | < 5.48 |  |  |  |  |  |  | FRET LXRβ efficacy (LXR β LBD protein [7]; [11]): 1553 (30) %; pEC50 (LXR β LBD protein [7]): 5.81; pKi (LXR β LBD protein [5]; Biological Test Example 1): < 5.60; pEC50 [6]: < 4.70; pEC50 [3, 9]: < 4.70; pEC50 (LXR α LBD protein [4]; [11]): 4.93; FRET LXRα efficacy (LXR α LBD protein [4]; [11]): 14% |
| CS(=O)(=O)c1cccc(N2CCN(C[C@@H]3CCC[C@@H](C(F)(F)F)C3)[C@@H](c3ccc(F)cc3)C2)c1 (single isomer, unassigned) [48-39] |  |  |  | 7.11 | < 4.70 |  |  | Cell LXRα efficacy [2]: 78 (86) % |
| CS(=O)(=O)c1cccc(N2CCN(CC3CCOCC3)[C@@H](c3ccccc3)C2)c1 [51-5, (S)-4-(3-(methylsulfonyl)phenyl)-2-phenyl-1-((tetrahydro-2H-pyran-4-yl)methyl)piperazine] | < 5.48 |  | < 4.70 |  |  |  |  | pEC50 (LXR β LBD protein [7]): < 4.30; pKi (LXR β LBD protein [5]; Biological Test Example 1): 5.99; pEC50 [6]: < 4.70; pEC50 (LXR α LBD protein [4]; [11]): < 4.30 |
| CS(=O)(=O)c1cc(N2CCN(C[C@H]3CC[C@H](C(F)(F)F)CC3)[C@@H](c3ccccc3)C2)ccc1C#N (single isomer, unassigned) [50-4] | 5.57 | 3065 (19) % | 5.51 |  |  |  |  | FRET LXRβ efficacy (LXR β LBD protein [7]; [11]): 82%; pEC50 (LXR β LBD protein [7]; [11]): 5.79; pKi (LXR β LBD protein [5]; Biological Test Example 1): 6.29; Cell LXRβ efficacy [6, 9]: 23%; pEC50 [6, 10]: 5.89; pEC50 (LXR α LBD protein [4]; [11]): 5.02; FRET LXRα efficacy (LXR α LBD protein [4]; [11]): 69% |
| CS(=O)(=O)c1cc(N2CCN(C[C@H]3CC[C@H](C(F)(F)F)CC3)[C@@H](c3ccccc3)C2)ccc1C(N)=O (single isomer, unassigned) [17-37] | 5.49 | 16011 (50) % | 4.80 |  |  | 6.22 | 53% | FRET LXRβ efficacy (LXR β LBD protein [7]; agonist mode): 85%; pEC50 (LXR β LBD protein [7]; agonist mode): 6.45; pKi (LXR β LBD protein [5]): 6.00; Cell LXRβ efficacy ([6]; agonist mode): 24%; pEC50 ([6]; agonist mode, read-out: Cell LXRβ EC50): 5.45 |
| CC(C)(O)c1ccc(CN2CCN(c3cccc(S(C)(=O)=O)c3)C[C@@H]2c2ccccc2)cc1 [10-12, (S)-2-(4-((4-(3-(methylsulfonyl)phenyl)-2-phenylpiperazin-1-yl)methyl)phenyl)propan-2-ol] | < 5.48 |  | < 4.70 |  |  | 5.86 | 18% | FRET LXRβ efficacy (LXR β LBD protein [7]; agonist mode): 1141 (33) %; pEC50 (LXR β LBD protein [7]): 5.94; pKi (LXR β LBD protein [5]): < 5.60; pEC50 [6]: < 4.70 |
| CC(C)c1ccc(CN2CCN(c3cccc(S(C)(=O)=O)c3)C[C@H]2c2ccccc2)cc1 [46-7, (R)-1-(4-isopropylbenzyl)-4-(3-(methylsulfonyl)phenyl)-2-phenylpiperazine] | < 5.48 |  | < 4.70 |  |  | < 4.30 |  | pEC50 (LXR β LBD protein [7]): < 4.30; pKi (LXR β LBD protein [5]): < 5.60; pEC50 [6]: < 4.70 |
